# From patent US20090191193A1, “Aryl Vinyl Sulfides, Sulfones, Sulfoxides and Sulfonamides, Derivatives Thereof and Therapeutic Uses Thereof” (TEMPLE UNIVERSITY-OF THE COMMONWEALTH SYSTEM OF HIGHER …, priority 2006, published 2009)
# Tests used:
# [1] = tested on: K562 (chronic myelogenous leukaemia); assay: Effect on tumor cell lines, viable cell count by trypan blue exclusion (Latham et al.): K562; assay type: cell-based; settings: K562 chronic myelogenous leukaemia cells, viable cell count 96 hours after treatment
# DU145 (prostate cancer) = assay: Effect on tumor cell lines, viable cell count by trypan blue exclusion (Latham et al.): DU145; assay type: cell-based; settings: DU145 prostate cancer cells, viable cell count 96 hours after treatment
SMILES,"IC50 ([1]; Homo sapiens, K562, 96 h) [µM]","IC50 (DU145 (prostate cancer); Homo sapiens, DU-145, 96 h) [µM]",melting point [°C],IC50 [1] [µM],IC50 (DU145 (prostate cancer)) [µM]
COc1ccc(/C=C(\C#N)S(=O)(=O)Cc2ccccc2)c(F)c1 [Example 129],50 to 100,> 100,161 to 166,–,–
N#C/C(=C\c1ccccc1Cl)S(=O)(=O)Cc1ccccc1 [Example 130],> 100,> 100,155 to 160,–,–
COc1cc(/C=C(\C#N)S(=O)(=O)Cc2ccccc2)cc(OC)c1OC [Example 131],50 to 100,> 100,142 to 146,–,–
COc1ccc(/C=C(\C#N)S(=O)(=O)Cc2ccccc2)c(OC)c1 [Example 132],> 100,> 100,125 to 130,–,–
COc1ccc(/C=C(\C#N)S(=O)(=O)Cc2ccccc2)cc1OC [Example 133],50 to 100,> 100,170 to 174,–,–
COc1cc(/C=C(\C#N)S(=O)(=O)Cc2ccccc2)cc(OC)c1 [Example 134],10 to 25,50 to 100,152 to 156,–,–
COc1ccc(OC)c(/C=C(\C#N)S(=O)(=O)Cc2ccccc2)c1 [Example 135],> 100,> 100,140 to 143,–,–
Cc1ccc(C)c(/C=C(\C#N)S(=O)(=O)Cc2ccccc2)c1 [Example 136],1 to 10,25 to 50,126 to 129,–,–
N#C/C(=C\c1ccccc1OCc1ccccc1)S(=O)(=O)Cc1ccccc1 [Example 137],50 to 100,> 100,93 to 97,–,–
N#C/C(=C\c1ccc(O)c([N+](=O)[O-])c1)S(=O)(=O)Cc1ccccc1 [Example 139],50 to 100,> 100,159 to 162,–,–
COc1ccc(/C=C(\C#N)S(=O)(=O)Cc2ccc(OC)cc2)cc1 [Example 141],> 100,> 100,163 to 167,–,–
N#C/C(=C\c1ccc(F)cc1F)S(=O)(=O)Cc1ccccc1 [Example 142],> 100,> 100,133 to 135,–,–
N#C/C(=C\c1cc(F)cc(F)c1)S(=O)(=O)Cc1ccccc1 [Example 143],25 to 50,> 100,148 to 150,–,–
N#C/C(=C\c1ccccc1Cl)S(=O)(=O)Cc1ccc(Br)cc1 [Example 144],25 to 50,> 100,143 to 147,–,–
N#C/C(=C\c1ccccc1Cl)S(=O)(=O)Cc1ccc(F)cc1 [Example 145],> 100,> 100,159 to 163,–,–
COc1ccc(CS(=O)(=O)/C(C#N)=C/c2ccc(Cl)c(Cl)c2Cl)cc1 [Example 146],25 to 50,50 to 100,136 to 138,–,–
COc1ccc(CS(=O)(=O)/C(C#N)=C/c2ccc(OC)cc2OC)cc1 [Example 147],> 100,> 100,156 to 160,–,–
COc1ccc(CS(=O)(=O)/C(C#N)=C/c2ccc(OC)c(OC)c2)cc1 [Example 148],25 to 50,50 to 100,155 to 160,–,–
COc1ccc(CS(=O)(=O)/C(C#N)=C/c2cc(OC)cc(OC)c2)cc1 [Example 149],50 to 100,> 100,135 to 140,–,–
COc1ccc(NS(=O)(=O)/C(C#N)=C/c2ccc(Br)cc2)cc1 [Example 190],50,50,106 to 107,–,–
COc1ccc(NS(=O)(=O)/C(C#N)=C/c2c(OC)cc(OC)cc2OC)cc1 [Example 191],–,–,134 to 136,1 to 10,1 to 10
COc1ccc(NS(=O)(=O)/C(C#N)=C/c2c(F)c(F)c(F)c(F)c2F)cc1 [Example 192],1 to 10,10 to 25,100 to 102,–,–

SMILES,"IC50 ([1]; Homo sapiens, K562, 96 h) [µM]","IC50 (DU145 (prostate cancer); Homo sapiens, DU-145, 96 h) [µM]",melting point [°C],IC50 [1] [µM],IC50 (DU145 (prostate cancer)) [µM]
"COc1ccc(NS(=O)(=O)/C(C#N)=C/c2c(F)c(F)c(F)c(F)c2F)cc1OS(=O)(=O)c1ccc(C)cc1 [Example 194, (E)-2-[(4-methoxy-3-(4-methylphenylsulfonyloxy)phenyl)sulfamoyl]-3-(2,3,4,5,6-pentafluorophenyl)acrylonitrile]",1 to 10,1 to 10,112 to 114,–,–
COc1ccc(/C=C(\C#N)S(=O)(=O)Nc2ccc(Cl)cc2)cc1 [Example 195],50 to 100,50 to 100,94 to 96,–,–
N#C/C(=C\c1ccc(Br)cc1)S(=O)(=O)Nc1ccccc1Oc1ccccc1 [Example 196],50 to 100,50 to 100,129 to 134,–,–
N#C/C(=C\c1c[nH]c2ccccc12)S(=O)(=O)Nc1ccccc1Oc1ccccc1 [Example 197],50 to 100,50 to 100,210 to 212,–,–
Cc1ccc(/C=C(\C#N)S(=O)(=O)Nc2ccccc2Oc2ccccc2)s1 [Example 198],50 to 100,50 to 100,141 to 143,–,–
COc1ccccc1/C=C(\C#N)S(=O)(=O)Nc1ccccc1Oc1ccccc1 [Example 199],50 to 100,> 100,116 to 118,–,–
COc1ccc(NS(=O)(=O)/C(C#N)=C/c2ccc(F)cc2)cc1 [Example 200],50 to 100,> 100,107 to 109,–,–
COc1ccc(NS(=O)(=O)/C(C#N)=C/c2cc(OC)ccc2OC)cc1 [Example 202],10 to 25,50 to 100,156 to 158,–,–
COc1ccc(NS(=O)(=O)/C(C#N)=C/c2ccccc2OC)cc1 [Example 204],50 to 100,> 100,133 to 135,–,–
N#C/C(=C\c1c[nH]c2ccccc12)S(=O)(=O)Nc1ccc(Cl)cc1 [Example 205],25 to 50,50 to 100,216 to 217,–,–
CN(C)c1ccc(/C=C(\C#N)S(=O)(=O)Nc2ccccc2Oc2ccccc2)cc1 [Example 206],> 100,> 100,158 to 160,–,–
N#C/C(=C\c1ccc(Cl)cc1)S(=O)(=O)Nc1ccccc1Oc1ccccc1 [Example 207],50 to 100,50 to 100,136 to 138,–,–
COc1cc(OC)c(/C=C(\C#N)S(=O)(=O)Nc2ccccc2Oc2ccccc2)c(OC)c1 [Example 208],25 to 50,50 to 100,154 to 156,–,–
N#C/C(=C\c1ccc(O)c([N+](=O)[O-])c1)S(=O)(=O)Nc1ccccc1Oc1ccccc1 [Example 209],50 to 100,> 100,83 to 85,–,–
N#C/C(=C\c1ccccc1Oc1ccccc1)S(=O)(=O)Nc1ccccc1Oc1ccccc1 [Example 210],1 to 10,25 to 50,138 to 140,–,–
CCOc1ccc(/C=C(\C#N)S(=O)(=O)Nc2ccccc2Oc2ccccc2)cc1OC [Example 211],1 to 10,1 to 10,142 to 144,–,–
N#C/C(=C\c1ccc(Cl)cc1)S(=O)(=O)Nc1ccc(Br)cc1 [Example 212],25 to 50,25 to 50,169 to 171,–,–
N#C/C(=C\c1ccccc1OCc1ccccc1)S(=O)(=O)Nc1ccc(Br)cc1 [Example 213],25 to 50,25 to 50,128 to 130,–,–
N#C/C(=C\c1c[nH]c2ccccc12)S(=O)(=O)Nc1ccc(Br)cc1 [Example 214],25 to 50,50 to 100,208 to 210,–,–
COc1cc(OC)c(/C=C(\C#N)S(=O)(=O)Nc2ccc(Br)cc2)c(OC)c1 [Example 215],10 to 25,25 to 50,197 to 199,–,–
CN(C)c1ccc(/C=C(\C#N)S(=O)(=O)Nc2ccc(Br)cc2)cc1 [Example 216],25 to 50,50 to 100,190 to 192,–,–
N#C/C(=C\c1ccc(Br)cc1)S(=O)(=O)Nc1ccc(Br)cc1 [Example 217],25 to 50,50 to 100,174 to 176,–,–
